In BindingDB's records for doi:10.1016/S0960-894X(00)80270-X (1991) one finds IC50 data, which are given here for one molecule.

The experiment is described as follows: Compound was tested for inhibitory activity against fucosyltransferase.

As a reminder, the IC50 is the concentration needed to halve the response being measured.

SMILES strings stand for the structures.

Consider `OC[C@@H]1NC[C@@H](O)[C@@H](O)[C@@H]1O[C@@H]1O[C@@H](CO)[C@H](O)[C@H](O)[C@@H]1O`, for which the concentration for half-maximal inhibition (IC50) stood at 40 mM.
